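How tested: cells in 96-well plates exposed to compound for 48 hours at five concentrations. TGI: total growth inhibition.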
Legend:
Test in all cases: NCI-60 cell line screen, 48 h
[1] = system: 786-0 renal
[2] = system: MALME-3M melanoma
[3] = system: MDA-N
[4] = system: SNB-19 CNS
[5] = system: M14 melanoma
[6] = system: HOP-92 NSCLC
[7] = system: SK-MEL-2 melanoma
[8] = system: HS 578T breast
[9] = system: T-47D breast
[10] = system: RPMI-8226 leukemia
[11] = system: A549 NSCLC
[12] = system: NCI-H522 lung
[13] = system: SF-539 CNS
[14] = system: ACHN renal
[15] = system: SF-268 CNS

Measured: TGI

CC(=O)OC1COC(n2c(-c3ccc(Cl)cc3)cc(-c3ccccc3)c(C#N)c2=S)C(OC(C)=O)C1OC(C)=O (stereo not given)
29.4 µM: [7]
> 39.3 µM: [15]
> 79.6 µM: [4]
28.8 µM: [6]
54 µM: [9]
24.6 µM: [8]
26.8 µM: [1]
30.6 µM: [11]
> 31.6 µM: [5] | [14]
15.2 µM: [13]
> 100 µM: all other assays above

Nc1cn(Cc2ccccc2)c2nc(/C=C3/C=CC=CC3=O)c(O)n12
> 100 µM: all assays above

O=C1c2c(ccc3c2CCC3)CC12Cc1cc3c(cc1C2)CCC3
> 100 µM: all assays above

COc1c2ccccc2c(OC)c2nc(C)ccc12
> 100 µM: all assays above

Cc1ccc(SCC(CF)OCn2cc(F)c(=O)[nH]c2=O)cc1 (stereo not given)
> 100 µM: all assays above

OC(C/C(=N\N1CCCCC1)c1cccs1)(C(F)(F)F)C(F)(F)F
> 10 µM: all assays above

O=c1[nH]c(=S)[nH]n1C(=S)n1[nH]c(=S)[nH]c1=O
> 100 µM: all assays above

CC(=O)NC1C(O)C(O)C(CO)OC1n1ncc(=O)[nH]c1=O (stereo not given)
> 100 µM: all assays above

CN(C)C(=O)Nc1cc2c3c(c1)CCCN3CCC2
> 10 µM: all assays above

COc1cccc2c(Nc3ccc(S(=O)(=O)NC(C)=O)cc3)c3ccc([N+](=O)[O-])cc3nc12
> 87 µM: [2]
> 93.7 µM: [15]
> 100 µM: all other assays above

CC1(C)CCCCCCC2OC2CCCCCC(C)(C)C1=O (stereo not given)
> 65.4 µM: [7]
> 95 µM: [10]
> 65 µM: [14]
> 81 µM: [6]
> 80.4 µM: [12]
> 100 µM: all other assays above

COc1ccc2c(c1)N=C1CSC(c3cccc(Br)c3)N1C2 (stereo not given)
36.3 µM: [7]
43.1 µM: [2]
39.1 µM: [12]
96.7 µM: [8]
34.5 µM: [3]
31 µM: [14]
78.8 µM: [4]
29.7 µM: [10]
41.4 µM: [13]
> 100 µM: [9] | [15]
36.2 µM: [5]
48.1 µM: [11]
53.2 µM: [6]
35.1 µM: [1]

CCCCC(=O)NC1(c2cc3ccccc3s2)CCCCC1
> 100 µM: all assays above

CCCCCC(CO)C(O)(C(F)(F)F)C(F)(F)F (stereo not given)
> 10 µM: all assays above

COc1ccc(-c2c(CN3CCOCC3)sc3nc4ccccc4n23)cc1
41.7 µM: [13]
> 20.2 µM: [12]
> 69.7 µM: [8]
> 57.1 µM: [4]
> 86.1 µM: [11]
98.2 µM: [15]
23.4 µM: [10]
> 76.8 µM: [1]
5.38 µM: [3]
> 100 µM: all other assays above

CCOC(=O)C(NC(=O)CC(C)C)(Nc1ccc(S(=O)(=O)Nc2nc(C)cc(C)n2)cc1)C(F)(F)F (stereo not given)
> 100 µM: all assays above

NC(N)=N/N=C/c1c(-c2ccc([N+](=O)[O-])cc2)nc2n1CCS2
16.3 µM: [9]
32.3 µM: [13]
36.2 µM: [11]
39.1 µM: [8]
29.4 µM: [12]
25.4 µM: [15]
11.4 µM: [4]
26.5 µM: [3]
36.6 µM: [2]
20.9 µM: [1]
> 63.3 µM: [10]
30.7 µM: [14]
22 µM: [7]
30.2 µM: [5]
40.5 µM: [6]

[O-][n+]1onc(-c2ccccc2)c1CN1CCOCC1
> 100 µM: all assays above

NC1=NN(c2ccccc2)C2(O)c3ccncc3C3=NN(c4ccccc4)C(=O)C132 (stereo not given)
> 100 µM: all assays above

CN(/N=C/c1ccccn1)C1=NCCCCN1
> 100 µM: all assays above

— PubChem BioAssay (NCI)
